The values that follow are results of earlier work, collected in paper PMC2898477, “High-quality crystals of human haematopoietic prostaglandin D synthase with novel inhibitors” (2010).

The IC50 is the concentration at which inhibition is half-maximal.

In the data set the target is T1, haematopoietic prostaglandin D synthase (H-PGDS) (Homo sapiens, UniProt O60760).
T1 construct: gene HPGDS
The data set is described as follows: co-crystallization and X-ray diffraction of the complex ([…] Å, P1); IC50 cited from Aritake et al. […]. It is filed as biochemical.

T1 sequence (O60760 whole entry): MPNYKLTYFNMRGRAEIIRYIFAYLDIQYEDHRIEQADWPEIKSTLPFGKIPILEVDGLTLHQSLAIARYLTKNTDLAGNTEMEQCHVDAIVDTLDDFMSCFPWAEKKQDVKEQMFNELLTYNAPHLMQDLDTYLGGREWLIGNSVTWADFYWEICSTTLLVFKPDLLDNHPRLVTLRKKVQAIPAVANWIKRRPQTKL

Regarding `c1ccc(C(OC2CCN(CCCc3nnn[nH]3)CC2)c2ccccc2)cc1` [HQL-79, 4-benzhydryloxy-1-[3-(1H-tetrazol-5-yl)-propyl]-piperidine], the IC50 was 5.9 µM.
